Reference: PubChem BioAssay (NCI)
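GI50 marks 50% less growth. At the TGI there is no net growth.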

Tests used:
Test in all cases: NCI tumour cell line growth inhibition, 384-well format
A498 renal = test system: A498 renal
A549 NSCLC = test system: A549 NSCLC
ACHN renal = test system: ACHN renal
BT-549 breast = test system: BT-549 breast
CAKI-1 renal = test system: CAKI-1 renal
COLO 205 colon = test system: COLO 205 colon
DU-145 prostate = test system: DU-145 prostate
EKVX NSCLC = test system: EKVX NSCLC
HCC-2998 colon = test system: HCC-2998 colon
HCT-116 colon = test system: HCT-116 colon
HCT-15 colon = test system: HCT-15 colon
HL-60(TB) leukemia = test system: HL-60(TB) leukemia
HOP-62 NSCLC = test system: HOP-62 NSCLC
HOP-92 NSCLC = test system: HOP-92 NSCLC
HS 578T breast = test system: HS 578T breast
HT29 colon = test system: HT29 colon
IGROV1 ovarian = test system: IGROV1 ovarian
KM12 colon = test system: KM12 colon
LOX IMVI melanoma = test system: LOX IMVI melanoma
M14 melanoma = test system: M14 melanoma
MALME-3M melanoma = test system: MALME-3M melanoma
MCF7 breast = test system: MCF7 breast
MDA-MB-231 breast = test system: MDA-MB-231 breast
MDA-MB-435 melanoma = test system: MDA-MB-435 melanoma
MDA-MB-468 breast = test system: MDA-MB-468 breast
MOLT-4 leukemia = test system: MOLT-4 leukemia
NCI-H226 lung = test system: NCI-H226 lung
NCI-H23 lung = test system: NCI-H23 lung
NCI-H322M lung = test system: NCI-H322M lung
NCI-H460 NSCLC = test system: NCI-H460 NSCLC
NCI-H522 lung = test system: NCI-H522 lung
NCI/ADR-RES ovarian = test system: NCI/ADR-RES ovarian
OVCAR-3 ovarian = test system: OVCAR-3 ovarian
OVCAR-4 ovarian = test system: OVCAR-4 ovarian
OVCAR-5 ovarian = test system: OVCAR-5 ovarian
OVCAR-8 ovarian = test system: OVCAR-8 ovarian
PC-3 prostate = test system: PC-3 prostate
RPMI-8226 leukemia = test system: RPMI-8226 leukemia
RXF 393 renal = test system: RXF 393 renal
SF-268 CNS = test system: SF-268 CNS
SF-295 CNS = test system: SF-295 CNS
SF-539 CNS = test system: SF-539 CNS
SK-MEL-28 melanoma = test system: SK-MEL-28 melanoma
SK-MEL-5 melanoma = test system: SK-MEL-5 melanoma
SK-OV-3 ovarian = test system: SK-OV-3 ovarian
SN12C renal = test system: SN12C renal
SNB-19 CNS = test system: SNB-19 CNS
SNB-75 CNS = test system: SNB-75 CNS
SR leukemia = test system: SR leukemia
T-47D breast = test system: T-47D breast
TK-10 renal = test system: TK-10 renal
U251 glioblastoma = test system: U251 glioblastoma
UACC-257 melanoma = test system: UACC-257 melanoma
UACC-62 melanoma = test system: UACC-62 melanoma

In the case of `O=C(Oc1ccc([N+](=O)[O-])cc1)N1CCN(Cc2cccc(Oc3ccccc3)c2)CC1`, the GI50 (A498 renal) is reported as 42.1 µM, the TGI (A498 renal) is reported as > 100 µM and the GI50 (A549 NSCLC) is reported as > 100 µM. For the same compound, the TGI (A549 NSCLC) was > 100 µM, the GI50 (ACHN renal) was > 100 µM and the TGI (ACHN renal) was > 100 µM. For the same compound, the GI50 (BT-549 breast) was 67.1 µM, the TGI (BT-549 breast) was > 100 µM and the GI50 (CAKI-1 renal) was > 100 µM. The TGI (CAKI-1 renal) was > 100 µM, the GI50 (COLO 205 colon) was > 100 µM and the TGI (COLO 205 colon) was > 100 µM. For the same compound, the GI50 (DU-145 prostate) was > 100 µM, the TGI (DU-145 prostate) was > 100 µM and the GI50 (EKVX NSCLC) was 44.1 µM. For the same compound, the TGI (EKVX NSCLC) was > 100 µM, the GI50 (HCC-2998 colon) was 47.3 µM and the TGI (HCC-2998 colon) was > 100 µM. For the same compound, the GI50 (HCT-116 colon) was 42.7 µM, the TGI (HCT-116 colon) was > 100 µM and the GI50 (HCT-15 colon) was 49.2 µM. The TGI (HCT-15 colon) was > 100 µM, the GI50 (HL-60(TB) leukemia) was 13.2 µM and the TGI (HL-60(TB) leukemia) was 34.2 µM. The GI50 (HOP-62 NSCLC) was > 100 µM, the TGI (HOP-62 NSCLC) was > 100 µM and the GI50 (HOP-92 NSCLC) was > 100 µM. The TGI (HOP-92 NSCLC) was > 100 µM, the GI50 (HS 578T breast) was 92.3 µM and the TGI (HS 578T breast) was > 100 µM. For the same compound, the GI50 (HT29 colon) was 51.6 µM, the TGI (HT29 colon) was > 100 µM and the GI50 (IGROV1 ovarian) was > 100 µM. The TGI (IGROV1 ovarian) was > 100 µM, the GI50 (KM12 colon) was 99.3 µM and the TGI (KM12 colon) was > 100 µM. For the same compound, the GI50 (LOX IMVI melanoma) was 53.9 µM, the TGI (LOX IMVI melanoma) was > 100 µM and the GI50 (M14 melanoma) was > 100 µM. The TGI (M14 melanoma) was > 100 µM, the GI50 (MALME-3M melanoma) was > 100 µM and the TGI (MALME-3M melanoma) was > 100 µM. For the same compound, the GI50 (MCF7 breast) was 31 µM, the TGI (MCF7 breast) was > 100 µM and the GI50 (MDA-MB-231 breast) was > 100 µM. The TGI (MDA-MB-231 breast) was > 100 µM, the GI50 (MDA-MB-435 melanoma) was > 100 µM and the TGI (MDA-MB-435 melanoma) was > 100 µM. For the same compound, the GI50 (MDA-MB-468 breast) was 20.6 µM, the TGI (MDA-MB-468 breast) was > 100 µM and the GI50 (MOLT-4 leukemia) was 41.4 µM. For the same compound, the TGI (MOLT-4 leukemia) was > 100 µM, the GI50 (NCI-H226 lung) was > 100 µM and the TGI (NCI-H226 lung) was > 100 µM. The GI50 (NCI-H23 lung) was 53.8 µM, the TGI (NCI-H23 lung) was > 100 µM and the GI50 (NCI-H322M lung) was 46.2 µM. The TGI (NCI-H322M lung) was > 100 µM, the GI50 (NCI-H460 NSCLC) was 21.6 µM and the TGI (NCI-H460 NSCLC) was 59.6 µM. The GI50 (NCI-H522 lung) was 22.9 µM, the TGI (NCI-H522 lung) was > 100 µM and the GI50 (NCI/ADR-RES ovarian) was 27.5 µM. For the same compound, the TGI (NCI/ADR-RES ovarian) was > 100 µM, the GI50 (OVCAR-3 ovarian) was > 100 µM and the TGI (OVCAR-3 ovarian) was > 100 µM. For the same compound, the GI50 (OVCAR-4 ovarian) was 30.9 µM, the TGI (OVCAR-4 ovarian) was > 100 µM and the GI50 (OVCAR-5 ovarian) was > 100 µM. For the same compound, the TGI (OVCAR-5 ovarian) was > 100 µM, the GI50 (OVCAR-8 ovarian) was > 100 µM and the TGI (OVCAR-8 ovarian) was > 100 µM. The GI50 (PC-3 prostate) was > 100 µM, the TGI (PC-3 prostate) was > 100 µM and the GI50 (RPMI-8226 leukemia) was 25.4 µM. The TGI (RPMI-8226 leukemia) was > 100 µM, the GI50 (RXF 393 renal) was 48 µM and the TGI (RXF 393 renal) was > 100 µM. For the same compound, the GI50 (SF-268 CNS) was > 100 µM, the TGI (SF-268 CNS) was > 100 µM and the GI50 (SF-295 CNS) was > 100 µM. For the same compound, the TGI (SF-295 CNS) was > 100 µM, the GI50 (SF-539 CNS) was > 100 µM and the TGI (SF-539 CNS) was > 100 µM. For the same compound, the GI50 (SK-MEL-28 melanoma) was > 100 µM, the TGI (SK-MEL-28 melanoma) was > 100 µM and the GI50 (SK-MEL-5 melanoma) was 18 µM. For the same compound, the TGI (SK-MEL-5 melanoma) was 55.2 µM, the GI50 (SK-OV-3 ovarian) was > 100 µM and the TGI (SK-OV-3 ovarian) was > 100 µM. The GI50 (SN12C renal) was 33.8 µM, the TGI (SN12C renal) was > 100 µM and the GI50 (SNB-19 CNS) was > 100 µM. The TGI (SNB-19 CNS) was > 100 µM, the GI50 (SNB-75 CNS) was > 100 µM and the TGI (SNB-75 CNS) was > 100 µM. For the same compound, the GI50 (SR leukemia) was 16.7 µM, the TGI (SR leukemia) was 32.9 µM and the GI50 (T-47D breast) was 30.6 µM. For the same compound, the TGI (T-47D breast) was > 100 µM, the GI50 (TK-10 renal) was 46.7 µM and the TGI (TK-10 renal) was > 100 µM. For the same compound, the GI50 (U251 glioblastoma) was > 100 µM, the TGI (U251 glioblastoma) was > 100 µM and the GI50 (UACC-257 melanoma) was 23.2 µM. The TGI (UACC-257 melanoma) was > 100 µM, the GI50 (UACC-62 melanoma) was > 100 µM and the TGI (UACC-62 melanoma) was > 100 µM.
